In article PMC7914897, “Cytotoxic Potential of a-Azepano- and 3-Amino-3,4-SeCo-Triterpenoids” (International Journal of Molecular Sciences, 2021):
Where two headings read alike, the source gives them in different places.

What was measured:
[1] = test system: FaDu (hypopharyngeal carcinoma); experiment: SRB cytotoxicity assay, 72 h; assay type: cell-based, human; conditions: Homo sapiens, cut-off 30 µM, read-out: EC50
Protocol: (§1) The cytotoxicity of compounds 1–20 was evaluated by means of a colorimetric sulforhodamine B (SRB) assay. For all compounds, the EC50 values were determined for the human tumor cell lines A375 (malignant melanoma), HT29 (colorectal carcinoma), MCF-7 (breast carcinoma), A2780 (ovarian carcinoma), FaDu (hypopharyngeal carcinoma), and NIH 3T3 (non-malignant mouse fibroblasts).
(§2) In short, exponentially growing cells were seeded into 96-well plates on day 0 at the appropriate cell densities to prevent confluence of the cells during the period of experiment. After 24 h, the cells were treated with serial dilutions of the compounds (0–30 µM) for 72 h. The final concentration of DMSO never exceeded 0.5%, which was non-toxic to the cells. After a 72 h treatment, the supernatant medium from the 96-well plates was discarded, and the cells were fixed with 10% TCA. For a thorough fixation, the plates were allowed to rest at 4 °C. After fixation, the cells were washed in a strip washer. The washing was done four times with water using alternate dispensing and aspiration procedures. The plates were then dyed with 100 µL of 0.4% SRB for about 20 min. After dying, the plates were washed with 1% acetic acid to remove the excess of the dye and allowed to air-dry overnight. Tris base solution (200 µL, 10 mM) was added to each well and absorbance was measured at λ = 570 nm (using a 96 well plate reader, Tecan Spectra, Crailsheim, Germany). The percentages of surviving cells relative to untreated controls were determined.

MCF-7 (breast carcinoma) = experiment: SRB cytotoxicity assay, 72 h; assay type: cell-based, human; conditions: Homo sapiens, MCF7; MCF-7, 72 h, cut-off 30 µM; read-out: EC50
Protocol: as §1, §2

[2] = test system: A375 (malignant melanoma); experiment: SRB cytotoxicity assay, 72 h; assay type: cell-based, human; conditions: Homo sapiens, A-375, 72 h, A375, 72 h, cut-off 30 µM; read-out: EC50
Protocol: as §1, §2

[3] = test system: A2780 (ovarian carcinoma); experiment: SRB cytotoxicity assay, 72 h; assay type: cell-based, human; conditions: Homo sapiens; A2780, 72 h, cut-off 30 µM; read-out: EC50
Protocol: as §1, §2

[4] = test system: HT29 (colorectal carcinoma); experiment: SRB cytotoxicity assay, 72 h; assay type: cell-based, human; conditions: Homo sapiens, HT-29; HT29, 72 h, cut-off 30 µM; read-out: EC50
Protocol: as §1, §2

[5] = test system: panel of approximately 60 cancer cell lines; experiment: NCI-60 screen (SRB, 48 h), full panel; conditions: for Positive Cytostatic Effect (cell lines with percent growth 0 to 50 / total) / Positive Cytotoxic Effect (cell lines with percent growth < 0 / total) / number of cancer cell lines the compound was active against: 1 dose 10 µM; for activity at 10 µM: Homo sapiens, 48 h
[6] = test system: NIH 3T3 (non-malignant mouse fibroblasts); experiment: SRB cytotoxicity assay, 72 h; assay type: cell-based; conditions: Mus musculus, NIH3T3; NIH 3T3, 72 h, cut-off 30 µM; read-out: EC50
Protocol: as §1, §2

SR (Leukemia) [7] = experiment: NCI-60 screen (SRB, 48 h); assay type: cell-based; conditions: 1 dose 10 µM
CAKI-1 (Renal cancer) = experiment: NCI-60 screen (SRB, 48 h); conditions: CAKI-1, 1 dose 10 µM
SF-295 (CNS cancer) = test system: SF-295 (CNS cancer); parameters: method as in earlier work; conditions: cited from earlier work
[8] = test system: NCI-H23 (NSC lung cancer); parameters: method as in earlier work; conditions: cited from earlier work
ACHN (Renal cancer) = test system: ACHN (Renal cancer); parameters: method as in earlier work; conditions: cited from earlier work
[9] = test system: MDA-MB-468 (Breast cancer); parameters: method as in earlier work; conditions: cited from earlier work
[10] = test system: panel of approximately 60 cancer cell lines; parameters: method as in earlier work; conditions: standard drugs; read-out: GI50 MG_MID60; cited from earlier work
EKVX (NSC lung cancer) = test system: EKVX (NSC lung cancer); parameters: method as in earlier work; conditions: cited from earlier work
SK-MEL-5 (Melanoma) = test system: SK-MEL-5 (Melanoma); parameters: method as in earlier work; conditions: cited from earlier work
HOP-92 (NSC lung cancer) = test system: HOP-92 (NSC lung cancer); parameters: method as in earlier work; conditions: cited from earlier work
[11] = test system: MDA-MB-31/ATCC (Breast cancer); parameters: method as in earlier work; conditions: cited from earlier work
Leukemia subpanel = test system: Leukemia subpanel; parameters: method as in earlier work; conditions: standard drugs, read-out: GI50 MG_MID; cited from earlier work
SNB-75 (CNS cancer) = test system: SNB-75 (CNS cancer); parameters: method as in earlier work; conditions: cited from earlier work
RPMI-8226 (Leukemia) = test system: RPMI-8226 (Leukemia); parameters: method as in earlier work; conditions: cited from earlier work
SR (Leukemia) [12] = test system: SR (Leukemia); parameters: method as in earlier work; conditions: cited from earlier work
T-47D (Breast cancer) = test system: T-47D (Breast cancer); parameters: method as in earlier work; conditions: cited from earlier work
SN12C (Renal cancer) = test system: SN12C (Renal cancer); parameters: method as in earlier work; conditions: cited from earlier work
MCF7 (Breast cancer) = test system: MCF7 (Breast cancer); parameters: method as in earlier work; conditions: cited from earlier work
RXF 393 (Renal cancer) = test system: RXF 393 (Renal cancer); parameters: method as in earlier work; conditions: cited from earlier work
OVCAR-8 (Ovarian cancer) = test system: OVCAR-8 (Ovarian cancer); parameters: method as in earlier work; conditions: cited from earlier work
U251 (CNS cancer) = test system: U251 (CNS cancer); parameters: method as in earlier work; conditions: cited from earlier work
HOP-62 (NSC lung cancer) = test system: HOP-62 (NSC lung cancer); parameters: method as in earlier work; conditions: cited from earlier work
SNB-19 (CNS cancer) = test system: SNB-19 (CNS cancer); parameters: method as in earlier work; conditions: cited from earlier work
[13] = test system: NCI-H522 (NSC lung cancer); parameters: method as in earlier work; conditions: cited from earlier work
SF-268 (CNS cancer) = test system: SF-268 (CNS cancer); parameters: method as in earlier work; conditions: cited from earlier work
CNS cancer subpanel = test system: CNS cancer subpanel; parameters: method as in earlier work; conditions: standard drugs, read-out: GI50 MG_MID; cited from earlier work
A498 (Renal cancer) = test system: A498 (Renal cancer); parameters: method as in earlier work; conditions: cited from earlier work
[14] = test system: NCI-H460 (NSC lung cancer); parameters: method as in earlier work; conditions: cited from earlier work
MOLT-4 (Leukemia) = test system: MOLT-4 (Leukemia); parameters: method as in earlier work; conditions: cited from earlier work
LOX IMVI (Melanoma) = test system: LOX IMVI (Melanoma); parameters: method as in earlier work; conditions: cited from earlier work
HCT-116 (Colon cancer) = test system: HCT-116 (Colon cancer); parameters: method as in earlier work; conditions: cited from earlier work
[15] = test system: A549/ATCC (NSC lung cancer); parameters: method as in earlier work; conditions: cited from earlier work
[16] = test system: NCI-H226 (NSC lung cancer); parameters: method as in earlier work; conditions: cited from earlier work
SW-620 (Colon cancer) = test system: SW-620 (Colon cancer); parameters: method as in earlier work; conditions: cited from earlier work
CCRF-CEM (Leukemia) = test system: CCRF-CEM (Leukemia); parameters: method as in earlier work; conditions: cited from earlier work

For `CC1(C)CC[C@]2(C(=O)NC(CO)Cc3ccccc3)CC[C@]3(C)C(=CC[C@@H]4[C@@]5(C)CCCNC(C)(C)[C@@H]5CC[C@]43C)[C@@H]2C1` (stereo partly drawn) [Compound 13], which EC50 [1] is on record?
The EC50 was 3790 ± 300 nM.

And the EC50 (MCF-7 (breast carcinoma))?
The EC50 was 2820 ± 300 nM.

And the EC50 [2]?
Its EC50 is 3080 ± 100 nM.

And the EC50 [3]?
The EC50 was 4150 ± 200 nM.

What about the EC50 [4] of the same compound?
The EC50 was 2070 ± 100 nM.

What about the “Positive Cytostatic Effect (cell lines with percent growth 0 to 50 / total)” value [5] of the same compound?
Its value is 10/60.

And the “Positive Cytotoxic Effect (cell lines with percent growth < 0 / total)” value [5]?
Its value is 1/60.

And the “number of cancer cell lines the compound was active against” value [5]?
Its value is 6 cell lines.

And the activity at 10 µM ([5]; read-out: Mean Growth, %)?
The activity at 10 µM was 74.9%.

What about the activity at 10 µM ([5]; read-out: Range of Growth, %) of the same compound?
The activity at 10 µM was -5.95 to 107%.

What about the EC50 [6] of the same compound?
The EC50 was 3080 ± 300 nM.

And the “Growth % of the Most Sensitive Cell Lines” value (SR (Leukemia) [7])?
Its value is −5.95%.

Which EC50 [1] does the source give for `CC1(C)NCCC[C@]2(C)[C@H]3CC(=O)[C@H]4[C@@H]5C[C@@](C)(CO)CC[C@]5(C)CC[C@@]4(C)[C@]3(C)CC[C@@H]12` [Compound 17] here?
The EC50 was 6360 ± 1800 nM.

And the EC50 (MCF-7 (breast carcinoma))?
Its EC50 is 5550 ± 600 nM.

What about the EC50 [2] of the same compound?
The EC50 was 6350 ± 500 nM.

And the EC50 [3]?
Its EC50 is 9190 ± 500 nM.

And the EC50 [4]?
Its EC50 is 5010 ± 800 nM.

And the “Positive Cytostatic Effect (cell lines with percent growth 0 to 50 / total)” value [5]?
The value was 0/59.

What about the “Positive Cytotoxic Effect (cell lines with percent growth < 0 / total)” value [5] of the same compound?
Its value is 0/59.

And the “number of cancer cell lines the compound was active against” value [5]?
Its value is “complete loss of cytotoxic activity”.

What about the activity at 10 µM ([5]; read-out: Mean Growth, %) of the same compound?
Its activity at 10 µM is 95.5%.

And the activity at 10 µM ([5]; read-out: Range of Growth, %)?
The activity at 10 µM was 51.6 to 118%.

What about the “Growth % of the Most Sensitive Cell Lines” value (CAKI-1 (Renal cancer)) of the same compound?
The value was 51.57%.

And the EC50 [6]?
Its EC50 is 9870 ± 1300 nM.

Which EC50 [1] does the source give for `C=C(C)[C@@H]1CC[C@]2(C)[C@H](CC=C3[C@@H]4CC(C)(C)CC[C@]4(CO)CC[C@]32C)[C@@]1(C)CCCN` [Compound 18] here?
The EC50 was 3340 ± 300 nM.

And the EC50 (MCF-7 (breast carcinoma))?
Its EC50 is 2650 ± 200 nM.

What about the EC50 [2] of the same compound?
Its EC50 is 3380 ± 200 nM.

What about the EC50 [3] of the same compound?
Its EC50 is 4000 ± 200 nM.

And the EC50 [4]?
The EC50 was 1720 ± 200 nM.

And the EC50 [6]?
Its EC50 is 4020 ± 700 nM.

What does the source list for `COc1cccc2c1C(=O)c1c(O)c3c(c(O)c1C2=O)C[C@@](O)(C(=O)CO)C[C@@H]3O[C@H]1C[C@H](N)[C@H](O)[C@H](C)O1` [DRB, doxorubicin]?
GI50 (SF-295 (CNS cancer)): 100 nM; GI50 [8]: 150 nM; GI50 (ACHN (Renal cancer)): 80 nM; GI50 [9]: 50 nM; GI50 [10]: 380 nM; GI50 (EKVX (NSC lung cancer)): 410 nM; GI50 (SK-MEL-5 (Melanoma)): 80 nM; GI50 (HOP-92 (NSC lung cancer)): 100 nM; GI50 [11]: 510 nM; GI50 (Leukemia subpanel): 80 nM; GI50 (SNB-75 (CNS cancer)): 70 nM; GI50 (RPMI-8226 (Leukemia)): 80 nM; GI50 (SR (Leukemia) [12]): 30 nM; GI50 (T-47D (Breast cancer)): 60 nM; GI50 (SN12C (Renal cancer)): 70 nM; GI50 (MCF7 (Breast cancer)): 30 nM; GI50 (RXF 393 (Renal cancer)): 100 nM; GI50 (OVCAR-8 (Ovarian cancer)): 100 nM; GI50 (U251 (CNS cancer)): 40 nM; GI50 (HOP-62 (NSC lung cancer)): 70 nM; GI50 (SNB-19 (CNS cancer)): 40 nM; GI50 [13]: 30 nM; GI50 (SF-268 (CNS cancer)): 100 nM; GI50 (CNS cancer subpanel): 80 nM; GI50 (A498 (Renal cancer)): 100 nM; GI50 [14]: 20 nM; GI50 (MOLT-4 (Leukemia)): 30 nM; GI50 (LOX IMVI (Melanoma)): 70 nM; GI50 (HCT-116 (Colon cancer)): 80 nM; GI50 [15]: 60 nM; GI50 [16]: 50 nM; GI50 (SW-620 (Colon cancer)): 90 nM; GI50 (CCRF-CEM (Leukemia)): 80 nM
